From publication PMC11311842, “Radiosynthesis and Preclinical Evaluation of ^18F-Labeled Estradiol Derivatives with Different Lipophilicity for PET Imaging of Breast Cancer” (Cancers, 2024)
pIC50: −log10 of the molar value. Read-outs that look alike come from different tables or passages of the source.

Key:
[1] = cited from earlier work
MCF-7 and T47D tumors = conditions: cited from earlier work
[2] = Hydrolysis of the Si-^18F bond observed on formulation; assay type: physicochemical; conditions: slightly acidic conditions (HBSS pH 6.4)
Description: Aiming at a more lipophilic derivatization of EE for comparison to the above-described hydrophilic derivatization, the well-known isotopic ^19F-^18F exchange reaction according to Schirrmacher et al. was applied to the radiosynthesis of ^18F-SiFA-EE, starting from ^19F-SiFA-EE. After cartridge purification and reformulation in HBSS (pH 6.4), ^18F-SiFA-EE was obtained in an AY of 44% (referred to [^18F]fluoride) after a total synthesis time of 27 min, with an Am of up to 28 GBq/µmol. It should be noted here that the obtained Am of ^18F-SiFA-EE was strongly dependent on the starting activity.

[3] = tested on: MCF-7 tumor-bearing nude mice; design: method as in PMID 29466767; conditions: 60 min p.i., cited from earlier work
[4] = Determination of logD7.4 (n-octanol/PBS); assay type: physicochemical; conditions: n-octanol/PBS pH 7.4; mean ± SD, three independent experiments
Description: For the determination of the octanol–water coefficient, an aliquot of the radiotracer was added to PBS (500 µL, pH 7.4) and n-octanol (500 µL) in an Eppendorf tube. The mixture was vortexed and subsequently centrifuged, each for 1 min. Three samples (each 100 µL) were taken from both the PBS and the n-octanol layer and measured using a γ-counter (Wallac Wizard, PerkinElmer, Waltham, MA, USA). The logD7.4 was expressed as log(cpmoctanol/cpmPBS) and reported as mean ± SD. The determination of logD7.4 was performed in three independent experiments, each performed in triplicate.

[5] = Stability in human serum and plasma in vitro (radio-HPLC); assay type: in vitro ADME; conditions: 37 °C; for Stability in human serum and plasma (in words): over 120 min, radio-HPLC; for Stability in Human Serum or Plasma: over 2 h, same for serum and plasma
Description: An aliquot of the formulated tracer solution (40 µL containing approx. 10 MBq in 0.9% NaCl) was incubated with 200 µL of human plasma (Hölzel Diagnostika Handels GmbH, from CosmoBio USA, Carlsbad, CA, USA) or human serum (Biochrom GmbH, Merck KGaA, Darmstadt, Germany), respectively, at 37 °C. After various time points (5–120 min), aliquots (30 µL) were taken and quenched in methanol or 10% TFA (30 µL). The samples were centrifuged for 3 min, and subsequently the supernatants were analyzed by radio-HPLC (Chromolith RP-18e, 100 × 4.6 mm, 10–100% acetonitrile (with 0.1% TFA) in water (with 0.1% TFA) over 5 min, 4 mL/min).

ER+ MCF-7 cells = test: Cellular uptake assay in ER+ cells; assay type: cell-based, human
Description: One day prior to the experiment, MCF-7 and MDA-MB-231 cells were seeded in 24-well plates (350,000 cells/well). The cells were washed once with cell medium. The cells were incubated with the respective radiotracer in cell medium (510 µL) for 10, 20, 30, 60, 90, 120 min at 37 °C in the absence and presence of estradiol (E2, final concentration of 72 µM). After incubation, the plates were set on ice and washed with ice-cold PBS twice, following cell lysis and detachment with NaOH (0.1 M, 750 µL, 37 °C). The cells were transferred to counting tubes, and the radioactivity was measured using a γ-counter (Wallac Wizard, PerkinElmer, Waltham, MA, USA). The protein concentration of each well was determined in duplicate using Bradford reagent (Bio-Rad Laboratories GmbH, Feldkirchen, Germany). The cellular uptake assay was performed in 2–4 independent experiments, each performed in quadruplicate for each time point.

[6] = tested on: MCF-7 (ER+) breast cancer cells; test: Competitive cellular uptake with ^18F-TA-Glyco-EE as radioligand; assay type: cell-based; conditions: Homo sapiens, MCF7, 1 h, read-out: IC50 for inhibition of cellular uptake of ^18F-TA-Glyco-EE
Description: Competitive uptake experiments were performed using ^18F-TA-Glyco-EE as a radioligand. One day prior to the experiment, MCF-7 cells were seeded in 96-well plates (50,000 cells/well). The cell medium was removed, and the respective estradiol derivative, as a competitor of the radioligand, was added in concentrations from 0 to 500 µM in 90 µL cell culture medium each. After ^18F-TA Glyco-EE (10 µL, approx. 1 MBq/well) was added, the incubation proceeded for 60 min at 37 °C. The plate was set on ice and washed with ice-cold PBS, followed by cell lysis and detachment with NaOH (0.1 M, 200 µL, 37 °C). The cells were transferred into counting tubes, and the radioactivity was measured using a γ-counter (Wallac Wizard, PerkinElmer, Waltham, MA, USA). One single experiment was performed in triplicate.

[7] = Plasma protein binding (MicroSpin G-50 columns); assay type: in vitro ADME; conditions: human plasma, 10 min, 37 °C
Description: MicroSPin G-50 columns (Cytiva, Merck KGaA, Darmstadt, Germany) were preconditioned according to the manufacturer’s protocol and the experiment was performed as follows. In brief, an aliquot of the tracer (1 µL, approx. 250 kBq) was added to NaCl (0.9%, 200 µL, negative control) or human plasma (200 µL) and incubated for 10 min at 37 °C. A sample from the plasma or negative control (40 µL) was carefully added to the resin, and the column was placed in an Eppendorf tube. After centrifugation (2 min, 2000× g), the eluate and the resin were collected separately. Both were measured for radioactivity using a γ-counter (Wallac Wizard, PerkinElmer, Waltham, MA, USA), and the radioactivity eluted from the resin was calculated as a percentage of the total amount of radioactivity. The determination of plasma protein binding was performed twice in duplicate.

CC12CCC3c4ccc(O)cc4CCC3C1CC([18F])C2O (stereo not drawn) [FES, 16α-[^18F]fluoroestradiol]
logD7.4 [1]: 2.5
Uptake in MCF-7 and T47D tumors (MCF-7 and T47D tumors): < 0.4 %ID/g

CC12CCC3c4ccc(O)cc4CCC3C1CCC2(O)c1cn(Cc2ccc([Si]([18F])(C(C)(C)C)C(C)(C)C)cc2)nn1 (stereo not shown) [^18F-SiFA-EE]
Hydrolytic stability of the Si-^18F bond [2]: highly amenable to hydrolysis of the Si-^18F bond

C#C[C@]1(O)CC[C@H]2[C@@H]3CCc4cc(O)ccc4[C@H]3CC[C@@]21C [EE, 17α-ethinylestradiol]
calculated logKow [1]: 3.7

CC12CCC3c4ccc(O)cc4CCC3C1CCC2(O)c1cn(CCOCCOCC[18F])nn1 (stereo not shown) [^18F-FETE]
Tumor uptake ([3]; MCF-7 tumor-bearing nude mice): 4 %ID/g
Tumor uptake after fulvestrant pretreatment ([3]; MCF-7 xenografts): 1.5 %ID/g

CC12CCC3c4ccc(O)cc4CCC3C1CCC2(O)c1cn(C2OC(C[18F])C(O)C(O)C2O)nn1 (stereo not shown) [^18F-Glyco-EE]
logD7.4 [4]: 1.7 ± 0.1
Stability in human serum and plasma (in words) [5]: stable in both plasma and serum over 120 min
Stability in Human Serum or Plasma [5]: >99% over 2 h ^2
Total cellular uptake in MCF-7 cells (ER+ MCF-7 cells; after 90 min, 37 °C, absence of E2): 7 %/mg

C[C@]12CC[C@@H]3c4ccc(O)cc4CC[C@H]3[C@@H]1CC[C@@]2(O)c1cn(CCOCCOCCOCCF)nn1 [PEG-EE]
pIC50 [6]: 2.89

CC12CCC3c4ccc(O)cc4CCC3C1CCC2(O)c1cn(CCOCCOCCOCC[18F])nn1 (stereo not shown) [^18F-PEG-EE]
logD7.4 [4]: 2.2 ± 0.1
Stability in human serum and plasma (in words) [5]: stable in both plasma and serum over 120 min
Stability in Human Serum or Plasma [5]: >99% over 2 h ^2
Plasma Protein Binding [7]: 71 ± 4%
Cellular uptake relative to ^18F-Glyco-EE (ER+ MCF-7 cells; ER+ MCF-7 cells): four times higher
Cellular uptake in MCF-7 cells (ER+ MCF-7 cells; after 60 min, 37 °C, absence of E2): 27 %/mg

C[C@]12CC[C@@H]3c4ccc(O)cc4CC[C@H]3[C@@H]1CC[C@@H]2O [E2, 17β-estradiol, reference compound]
pIC50 ([6]; MCF-7 cells, 60 min, 37 °C, single experiment in triplicate): 4.25

CC(=O)OC1C(CF)OC(n2cc(C3(O)CCC4C5CCc6cc(O)ccc6C5CCC43C)nn2)C(OC(C)=O)C1OC(C)=O (stereo not shown) [TA-Glyco-EE]
pIC50 [6]: 3.71
